Non-standard residues stand in square brackets, D forms with d. Primed or numbered codes have the meaning given here. No end group written: not given here. Ida = iminodiacetic acid linker, its two carboxyls bind the Lys side-chain amines of two peptides, giving a homodimer; Ida(3) = iminodiacetic acid linker, Lys side-chain amines bound to its two carboxyl groups
tested on: HUVECs; assay type: cell-based; conditions: 48 h
How it was run: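 Proliferation read-out: BrdU incorporation after 48-hour culture (37 ° C, 5% CO2) with graded peptide doses. Cells were in EBM with 2% FCS at 5,000 per well, driven by VEGF (5 ng/ml) or bFGF (10 ng/ml), added after ≥12-hour attachment.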

Compound | IC50 [µM]
CC[C@H](C)[C@H](NC(=O)[C@H](CCCNC(=N)N)NC(=O)[C@@H](NC(=O)[C@H](CCCNC(=N)N)NC(=O)[C@H](CCC(N)=O)NC(=O)[C@H](CCCNC(=N)N)NC(=O)[C@H](CCCNC(=N)N)NC(=O)[C@H](CCCNC(=N)N)NC(=O)[C@H](CCCNC(=N)N)NC(=O)[C@H](CCCNC(=N)N)NC(C)=O)C(C)C)C(=O)N[C@H](C(=O)N[C@@H](Cc1ccccc1)C(=O)N[C@@H](CCCCNC(=O)CN(CC(=O)NCCCC[C@H](NC(=O)[C@H](Cc1ccccc1)NC(=O)[C@@H](NC(=O)[C@@H](NC(=O)[C@H](CCCNC(=N)N)NC(=O)[C@@H](NC(=O)[C@H](CCCNC(=N)N)NC(=O)[C@H](CCC(N)=O)NC(=O)[C@H](CCCNC(=N)N)NC(=O)[C@H](CCCNC(=N)N)NC(=O)[C@H](CCCNC(=N)N)NC(=O)[C@H](CCCNC(=N)N)NC(=O)[C@H](CCCNC(=N)N)NC(C)=O)C(C)C)[C@@H](C)CC)[C@@H](C)CC)C(N)=O)C(=O)CCNC(=O)OC(C)(C)C)C(N)=O)[C@@H](C)CC [Peptide 167] | < 10
CC[C@H](C)[C@H](NC(=O)[C@H](C)NC(=O)[C@@H](NC(=O)[C@H](CCSC)NC(=O)[C@H](CCC(N)=O)NC(=O)[C@H](CCCNC(=N)N)NC(=O)[C@H](CCCNC(=N)N)NC(=O)[C@H](CCCNC(=N)N)NC(=O)[C@H](CCCNC(=N)N)NC(=O)[C@H](C)NC(C)=O)C(C)C)C(=O)N[C@@H](Cc1ccc(O)cc1)C(=O)N[C@@H](Cc1ccccc1)C(=O)N[C@@H](CCCCNC(=O)CN(CC(=O)NCCCC[C@H](NC(=O)[C@H](Cc1ccccc1)NC(=O)[C@H](Cc1ccc(O)cc1)NC(=O)[C@@H](NC(=O)[C@H](C)NC(=O)[C@@H](NC(=O)[C@H](CCSC)NC(=O)[C@H](CCC(N)=O)NC(=O)[C@H](CCCNC(=N)N)NC(=O)[C@H](CCCNC(=N)N)NC(=O)[C@H](CCCNC(=N)N)NC(=O)[C@H](CCCNC(=N)N)NC(=O)[C@H](C)NC(C)=O)C(C)C)[C@@H](C)CC)C(N)=O)C(=O)CCNC(=O)OC(C)(C)C)C(N)=O [Peptide 385] | < 10
CC[C@H](C)[C@H](NC(=O)[C@H](C)NC(=O)[C@@H](NC(=O)[C@H](CCCNC(=N)N)NC(=O)[C@H](CCC(N)=O)NC(=O)[C@H](CCCNC(=N)N)NC(=O)[C@H](CCCNC(=N)N)NC(=O)[C@H](CCCNC(=N)N)NC(=O)[C@H](CCCNC(=N)N)NC(=O)[C@H](C)NC(C)=O)C(C)C)C(=O)N[C@@H](Cc1ccc(O)cc1)C(=O)N[C@@H](CCC(=O)O)C(=O)N[C@@H](CCCCNC(=O)CN(CC(=O)NCCCC[C@H](NC(=O)[C@H](CCC(=O)O)NC(=O)[C@H](Cc1ccc(O)cc1)NC(=O)[C@@H](NC(=O)[C@H](C)NC(=O)[C@@H](NC(=O)[C@H](CCCNC(=N)N)NC(=O)[C@H](CCC(N)=O)NC(=O)[C@H](CCCNC(=N)N)NC(=O)[C@H](CCCNC(=N)N)NC(=O)[C@H](CCCNC(=N)N)NC(=O)[C@H](CCCNC(=N)N)NC(=O)[C@H](C)NC(C)=O)C(C)C)[C@@H](C)CC)C(N)=O)C(=O)CCNC(=O)OC(C)(C)C)C(N)=O [Peptide 346] | > 30

same assay, conditions: HUVEC proliferation, bFGF at 10 ng/ml or VEGF at 5 ng/ml, 48 hours, BrdU incorporation; read-out: IC50 on HUVECs

Compound | IC50 [µM]
377 (Ac-ARRRRQRVAIMFK-NH2; not fully specified (residue 13); also: homodimer via Ida linker on Lys13 side chain, Boc on Ida amine) [compound 377] | < 10
265 (Ac-RRRRRQAVAIGFK; not fully specified (C-terminus); also: homodimer: side chain of Lys13 bound to an Ida linker) [compound 265] | < 10
YGRKKRRQRRR [compound 445] | > 30
304 (Ac-RRRRRQAVRIDIDFK(Ida)-NH2; also: homodimer via Ida linker on Lys15 side chain) [compound 304] | < 10
493 (Ac-ARRRNQPVAIKF; not fully specified (residue 11); also: homodimer: Lys11 side chain bound to Ida linker (Boc on Ida N)) [compound 493] | > 30
396 (Ac-ARRRRQAVWIYFK; not fully specified (residue 13, C-terminus); also: homodimer of residues 1-13 via Ida linker at Lys13 side chain) [compound 396] | < 10
223 (Ac-ARRRRQRVAIGFK; also: homodimer via Ida linker on side chain of Lys13) [compound 223] | > 30
460 (Ac-ARRK(Ida(3))RQAVAIYF; also: homodimer via Ida linker on Lys side chains, linker at 4 via Ida, other end not in the chain) [compound 460] | 10 to 30
KTKRKRKKQRVKIAYEEIFVQ [compound 26] | < 10
KRKKQRVKIAYEEIFVKNM [compound 10] | 10 to 30
263 (Ac-A[dR]RRRQRVAIIFK-NH2; not fully specified (residue 13); also: homodimer via Ida linker on Lys13 side chains) [compound 263] | < 10
KTKRKRKKQRVKIAYEEIFVKNM [compound 5] | < 10
385 (Ac-ARRRRQMVAIYFK-NH2; not fully specified (residue 13); also: homodimer via Ida linker on Lys13 side chain, Ida amine Boc) [compound 385] | < 10
KKKKKMPKLRFASRIRKIRKKQF [compound 71] | 10 to 30
401 (Ac-ERRRRQAVAIYFK(Ida(3))-NH2; also: homodimer via Ida linker on Lys13 side chain, Ida amine Boc) [compound 401] | < 10
416 (Ac-ARRRRQAVRIKF; not fully specified (residue 11); also: homodimer via Ida linker on Lys side chains, linker at 11 via Ida, other end not in the chain) [compound 416] | < 10
425 (Ac-ARRRRQRVAIKF; not fully specified (residue 11); also: homodimer of residues 1-12 via Ida linker on Lys11 side chain) [compound 425] | < 10
473 (Ac-PRRRLQAVAIYFK(Ida(3)); not fully specified (C-terminus); also: homodimer via Ida linker on Lys13 side chain) [compound 473] | > 30
KTKRKRKKQRVKIAAEEIFVQNM [compound 49] | > 30
247 (Ac-RRRRHQRVHIIF; also: homodimer: C-termini of two chains bound to the two amines of a Lys linker) [compound 247] | < 10
313 (Ac-RARRRQAVAIGFK(Ida)-NH2; also: homodimer via Ida linker on Lys13 side chain) [compound 313] | 10 to 30

Compound | IC50 [µM]
310 (Ac-RRRRRQK(Ida)VRIIFV; also: homodimer via Ida linker on Lys7 side chain) [compound 310] | < 10
KKQRVKIAYEEIFVQNM [compound 24] | > 30
KTKRKRKKQRVKIA [compound 37] | > 30
198 (Ac-RARARQRVRIIF; also: dimer: C-terminal Phe bound to an amino group of a Lys linker, 2 chains per Lys) [compound 198] | < 10
405 (Ac-LRRRRQAVAIYFK(Ida(3))-NH2; also: homodimer via Ida linker on Lys13 side chain, Boc on Ida amine) [compound 405] | < 10
KTKRKRKKQRVKIIFV [compound 85] | < 10
333 (Ac-RHHRRQHVRIYFK; not fully specified (residue 13, C-terminus); also: homodimer via Ida linker on Lys13 side chain) [compound 333] | < 10
326 (Ac-RRRRHQHVRIYFK; not fully specified (residue 13, C-terminus); also: homodimer via Ida linker on Lys13 side chain) [compound 326] | < 10
452 (Ac-PRRRRQAVAIVFK-NH2; not fully specified (residue 13); also: homodimer via Ida linker at K13) [compound 452] | < 10
237 (Ac-RHRRHQRVRIIF; also: dimer via C-terminal Phe to Lys linker) [compound 237] | < 10
399 (Ac-ARRRRQAVRIYFK; not fully specified (residue 13, C-terminus); also: homotrimer via ATA linker at Lys13 side chain) [compound 399] | < 10
246 (Ac-RRRRHQHVRIIF; also: homodimer: C-termini of two chains bound to the two amines of a Lys linker) [compound 246] | < 10
317 (Ac-ARRRRQHVAIYFK(Ida)-NH2; also: homodimer via Ida linker on Lys13 side chain) [compound 317] | < 10
KTKAKRKKQRVKIIFVQNM [compound 120] | < 10
451 (Ac-NRRRRQAVAIVFK-NH2; also: homodimer via Ida linker at K13) [compound 451] | > 30
RKRKKQRVKIAYEEIFV [compound 62] | > 30
TKRKRKKQRVKIAYEEIF [compound 65] | > 30
KTKRKRKKQRVKIAY [compound 36] | > 30
462 (Ac-ARRRRK(Ida(3))AVAIYF; also: homodimer via Ida linker on Lys side chains, linker at 6 via Ida, other end not in the chain) [compound 462] | 10 to 30
243 (Ac-RRHRRQRVHIIF; also: dimer via C-terminal Phe to Lys linker) [compound 243] | < 10
458 (Ac-KARRRRQAVAIYF; not fully specified (residue 1); also: homodimer via Ida linker on Lys side chains, linker at 1 via Ida, other end not in the chain) [compound 458] | > 30

Source: patent US20070203066A1, “Compositions and methods for inhibiting cellular proliferation” (priority 2005, published 2007)
